Data reported in patent publication US10781224B2, “Bis(oxymethyl)phosphinic acid and biogenic metal salts thereof as regulators of plant growth and development” (priority 2016, dated 2020).

Tested on: rice (Diamant variety)
Experiment: Rice seed treatment with BHMPA salts: germinating power
Type: in vivo
Conditions: for optimum concentration for treating rice seeds before sowing / dry mass of the roots increased by / dry mass of the sprouts increased by / length of the root increased by / length of the sprout increased by / wet mass of the roots increased by / wet mass of the sprouts increased by: rice; for dry mass of the roots increased by / dry mass of the sprouts increased by / length of the root increased by / length of the sprout increased by / wet mass of the roots increased by / wet mass of the sprouts increased by: vs control, 1·10^−9% solution
Procedure: Experimental versions—soaking seeds in BHMPA solutions and solutions of BHMPA Ca, Mg, Na, Co, Mn, Cu, and Zn salts at 1·10^−6-1·10^−12% concentrations (doses). The studies were conducted in laboratory in Petri dishes; seed bed—two layers of filter paper. 50 seeds soaked in water (control) and in the solutions of the tested compounds (experimental) were placed into each dish. Wheat, corn, and rice seeds were exposed for one hour.
Seed germination energy and rate were calculated in percent as an arithmetic mean of the four experimental results (germination energy on the 4th day, wheat germination on the 8th day, rice and corn germination—on the 7th day). Germination was determined based on the germinating power indicators (length of the roots and sprouts and their wet and dry mass per 100 shoots).
The effect of pre-sowing seed treatment with the claimed BHMPA salts of biogenic metals was studied on winter wheat (Vershin variety), corn (Krasnodar 385 MV variety), and rice (Diamant variety).
The above data describe the seed viability only at the initial stage of germination, while the germination ability at the later stage of germination is defined by the initial germinating power. The method for the determination of the germinating power comprises measuring the height of the sprouts and primary roots, as well as the biomass and the dry mass thereof per 100 seedlings. [M. A. Kartuzova. Initial Germinating Power as Method of Biological Assessment of Seed Quality. Selection and Seed Farming, #2, 1953].

[1] = rice seed treatment, comparison with Melaphen (Table XXXIII), solution 1 · 10^−9%
[2] = rice seeds, solution concentration 1 · 10^−6%
[3] = rice seeds, solution concentration 1 · 10^−7%
[4] = rice seeds, solution concentration 1 · 10^−8%
[5] = rice seeds, solution concentration 1 · 10^−9%
[6] = rice seeds, solution concentration 1 · 10^−10%
[7] = rice seeds, solution concentration 1 · 10^−11%
[8] = rice seeds, solution concentration 1 · 10^−12%
[9] = rice seed treatment, experimental solution 1 · 10^−6%
[10] = rice seed treatment, experimental solution 1 · 10^−7%
[11] = rice seed treatment, experimental solution 1 · 10^−8%
[12] = rice seed treatment, experimental solution 1 · 10^−9%
[13] = rice seed treatment, experimental solution 1 · 10^−10%
[14] = rice seed treatment, experimental solution 1 · 10^−11%
[15] = rice seed treatment, experimental solution 1 · 10^−12%

## O.O.O=P([O-])(CO)CO.O=P([O-])(CO)CO.[Co+2] [Co-salt, Cobalt BHMPA Salt]
  optimum concentration for treating rice seeds before sowing: 1·10^−9%
  dry mass of the roots increased by: 53%
  dry mass of the sprouts increased by: 75%
  length of the root increased by: 32%
  length of the sprout increased by: 52%
  wet mass of the roots increased by: 40%
  wet mass of the sprouts increased by: 41%
[1]
  Length, root: 6.4 cm
  Length, root, + % to control: 33%
  Length, sprout: 3.7 cm
  Length, sprout, + % to control: 42%
  Mass, dry, root: 0.25 g/100 plantlings
  Mass, dry, root, + % to control: 19%
  Mass, dry, sprout: 0.28 g/100 plantlings
  Mass, dry, sprout, + % to control: 12%
  Mass, wet, root: 1.37 g/100 plantlings
  Mass, wet, root, + % to control: 40%
  Mass, wet, sprout: 2.28 g/100 plantlings
  Mass, wet, sprout, + % to control: 51%
[2]
  Length, root: 5.1 cm
  Length, root, + % to control: 8.5%
  Length, sprout: 2.6 cm
  Length, sprout, + % to control: 13%
  Mass, dry, root: 0.19 g/100 plantlings
  Mass, dry, root, + % to control: 12%
  Mass, dry, sprout: 0.25 g/100 plantlings
  Mass, dry, sprout, + % to control: 25%
  Mass, wet, root: 0.89 g/100 plantlings
  Mass, wet, root, + % to control: 8.5%
  Mass, wet, sprout: 1.71 g/100 plantlings
  Mass, wet, sprout, + % to control: 15.5%
[3]
  Length, root: 5.4 cm
  Length, root, + % to control: 15%
  Length, sprout: 2.9 cm
  Length, sprout, + % to control: 26%
  Mass, dry, root: 0.22 g/100 plantlings
  Mass, dry, root, + % to control: 29%
  Mass, dry, sprout: 0.28 g/100 plantlings
  Mass, dry, sprout, + % to control: 40%
  Mass, wet, root: 0.94 g/100 plantlings
  Mass, wet, root, + % to control: 15%
  Mass, wet, sprout: 1.80 g/100 plantlings
  Mass, wet, sprout, + % to control: 22%
[4]
  Length, root: 5.7 cm
  Length, root, + % to control: 21%
  Length, sprout: 3.1 cm
  Length, sprout, + % to control: 35%
  Mass, dry, root: 0.24 g/100 plantlings
  Mass, dry, root, + % to control: 41%
  Mass, dry, sprout: 0.31 g/100 plantlings
  Mass, dry, sprout, + % to control: 55%
  Mass, wet, root: 1.07 g/100 plantlings
  Mass, wet, root, + % to control: 30%
  Mass, wet, sprout: 2.01 g/100 plantlings
  Mass, wet, sprout, + % to control: 36%
[5]
  Length, root: 6.2 cm
  Length, root, + % to control: 32%
  Length, sprout: 3.5 cm
  Length, sprout, + % to control: 52%
  Mass, dry, root: 0.26 g/100 plantlings
  Mass, dry, root, + % to control: 53%
  Mass, dry, sprout: 0.35 g/100 plantlings
  Mass, dry, sprout, + % to control: 75%
  Mass, wet, root: 1.15 g/100 plantlings
  Mass, wet, root, + % to control: 40%
  Mass, wet, sprout: 2.09 g/100 plantlings
  Mass, wet, sprout, + % to control: 41%
[6]
  Length, root: 5.8 cm
  Length, root, + % to control: 23%
  Length, sprout: 3.2 cm
  Length, sprout, + % to control: 39%
  Mass, dry, root: 0.23 g/100 plantlings
  Mass, dry, root, + % to control: 35%
  Mass, dry, sprout: 0.28 g/100 plantlings
  Mass, dry, sprout, + % to control: 40%
  Mass, wet, root: 1.03 g/100 plantlings
  Mass, wet, root, + % to control: 26%
  Mass, wet, sprout: 1.97 g/100 plantlings
  Mass, wet, sprout, + % to control: 33%
[7]
  Length, root: 5.6 cm
  Length, root, + % to control: 19%
  Length, sprout: 2.8 cm
  Length, sprout, + % to control: 22%
  Mass, dry, root: 0.20 g/100 plantlings
  Mass, dry, root, + % to control: 18%
  Mass, dry, sprout: 0.26 g/100 plantlings
  Mass, dry, sprout, + % to control: 30%
  Mass, wet, root: 0.94 g/100 plantlings
  Mass, wet, root, + % to control: 15%
  Mass, wet, sprout: 1.89 g/100 plantlings
  Mass, wet, sprout, + % to control: 28%
[8]
  Length, root: 5.2 cm
  Length, root, + % to control: 11%
  Length, sprout: 2.7 cm
  Length, sprout, + % to control: 17%
  Mass, dry, root: 0.19 g/100 plantlings
  Mass, dry, root, + % to control: 12%
  Mass, dry, sprout: 0.24 g/100 plantlings
  Mass, dry, sprout, + % to control: 20%
  Mass, wet, root: 0.88 g/100 plantlings
  Mass, wet, root, + % to control: 7%
  Mass, wet, sprout: 1.82 g/100 plantlings
  Mass, wet, sprout, + % to control: 23%

## O=P([O-])(CO)CO.O=P([O-])(CO)CO.[Zn+2] [Zn-salt, Zinc BHMPA Salt]
  optimum concentration for treating rice seeds before sowing: 1·10^−9%
  dry mass of the roots increased by: 59%
  dry mass of the sprouts increased by: 50%
  length of the root increased by: 30%
  length of the sprout increased by: 50%
  wet mass of the roots increased by: 57%
  wet mass of the sprouts increased by: 58%
[1]
  Length, root: 7.5 cm
  Length, root, + % to control: 56%
  Length, sprout: 4.8 cm
  Length, sprout, + % to control: 48%
  Mass, dry, root: 0.28 g/100 plantlings
  Mass, dry, root, + % to control: 33%
  Mass, dry, sprout: 0.32 g/100 plantlings
  Mass, dry, sprout, + % to control: 28%
  Mass, wet, root: 1.54 g/100 plantlings
  Mass, wet, root, + % to control: 57%
  Mass, wet, sprout: 2.57 g/100 plantlings
  Mass, wet, sprout, + % to control: 70%
[9]
  Length, root: 6.2 cm
  Length, root, + % to control: 15%
  Length, sprout: 2.6 cm
  Length, sprout, + % to control: 8%
  Mass, dry, root: 0.19 g/100 plantlings
  Mass, dry, root, + % to control: 12%
  Mass, dry, sprout: 0.23 g/100 plantlings
  Mass, dry, sprout, + % to control: 4.5%
  Mass, wet, root: 1.04 g/100 plantlings
  Mass, wet, root, + % to control: 24%
  Mass, wet, sprout: 1.81 g/100 plantlings
  Mass, wet, sprout, + % to control: 24%
[10]
  Length, root: 6.6 cm
  Length, root, + % to control: 22%
  Length, sprout: 2.8 cm
  Length, sprout, + % to control: 17%
  Mass, dry, root: 0.22 g/100 plantlings
  Mass, dry, root, + % to control: 29%
  Mass, dry, sprout: 0.27 g/100 plantlings
  Mass, dry, sprout, + % to control: 23%
  Mass, wet, root: 1.21 g/100 plantlings
  Mass, wet, root, + % to control: 44%
  Mass, wet, sprout: 2.10 g/100 plantlings
  Mass, wet, sprout, + % to control: 44%
[11]
  Length, root: 6.8 cm
  Length, root, + % to control: 26%
  Length, sprout: 3.1 cm
  Length, sprout, + % to control: 29%
  Mass, dry, root: 0.24 g/100 plantlings
  Mass, dry, root, + % to control: 41%
  Mass, dry, sprout: 0.28 g/100 plantlings
  Mass, dry, sprout, + % to control: 27%
  Mass, wet, root: 1.29 g/100 plantlings
  Mass, wet, root, + % to control: 53.5%
  Mass, wet, sprout: 2.27 g/100 plantlings
  Mass, wet, sprout, + % to control: 55%
[12]
  Length, root: 7.0 cm
  Length, root, + % to control: 30%
  Length, sprout: 3.6 cm
  Length, sprout, + % to control: 50%
  Mass, dry, root: 0.27 g/100 plantlings
  Mass, dry, root, + % to control: 59%
  Mass, dry, sprout: 0.33 g/100 plantlings
  Mass, dry, sprout, + % to control: 50%
  Mass, wet, root: 1.32 g/100 plantlings
  Mass, wet, root, + % to control: 57%
  Mass, wet, sprout: 2.31 g/100 plantlings
  Mass, wet, sprout, + % to control: 58%
[13]
  Length, root: 6.9 cm
  Length, root, + % to control: 28%
  Length, sprout: 3.2 cm
  Length, sprout, + % to control: 33%
  Mass, dry, root: 0.25 g/100 plantlings
  Mass, dry, root, + % to control: 47%
  Mass, dry, sprout: 0.31 g/100 plantlings
  Mass, dry, sprout, + % to control: 41%
  Mass, wet, root: 1.26 g/100 plantlings
  Mass, wet, root, + % to control: 50%
  Mass, wet, sprout: 2.17 g/100 plantlings
  Mass, wet, sprout, + % to control: 49%
[14]
  Length, root: 6.7 cm
  Length, root, + % to control: 24%
  Length, sprout: 2.8 cm
  Length, sprout, + % to control: 17%
  Mass, dry, root: 0.22 g/100 plantlings
  Mass, dry, root, + % to control: 29%
  Mass, dry, sprout: 0.29 g/100 plantlings
  Mass, dry, sprout, + % to control: 32%
  Mass, wet, root: 1.19 g/100 plantlings
  Mass, wet, root, + % to control: 42%
  Mass, wet, sprout: 2.09 g/100 plantlings
  Mass, wet, sprout, + % to control: 43%
[15]
  Length, root: 5.9 cm
  Length, root, + % to control: 9%
  Length, sprout: 2.7 cm
  Length, sprout, + % to control: 12.5%
  Mass, dry, root: 0.19 g/100 plantlings
  Mass, dry, root, + % to control: 12%
  Mass, dry, sprout: 0.25 g/100 plantlings
  Mass, dry, sprout, + % to control: 14%
  Mass, wet, root: 1.05 g/100 plantlings
  Mass, wet, root, + % to control: 25%
  Mass, wet, sprout: 1.70 g/100 plantlings
  Mass, wet, sprout, + % to control: 16%
